The subject of test [1] is LAMPU (Lamium purpureum, purple deadnettle). Nature of the test: Post-emergence foliar-applied weed control in cereal crops, greenhouse (Example III). The test is classed as in vivo, Lamium purpureum (L.). On the procedure:
(§1) Seeds of the desired test plant species were planted in Sun Gro MetroMix® 306 planting mixture, which typically has a pH of 6.0 to 6.8 and an organic matter content of about 30 percent, in plastic pots with a surface area of 103.2 square centimeters (cm^2). When required to ensure good germination and healthy plants, a fungicide treatment and/or other chemical or physical treatment was applied. The plants were grown for 7-36 days in a greenhouse with an approximate 14 hour photoperiod which was maintained at about 18° C. during the day and 17° C. during the night. Nutrients and water were added on a regular basis and supplemental lighting was provided with overhead metal halide 1000-Watt lamps as necessary. The plants were employed for testing when they reached the second or third true leaf stage.
(§2) Treatments consisted of the benzyl ester of 4-amino-3-chloro-5-fluoro-6-(4-chloro-2-fluoro-3-methoxy-phenyl)pyridine-2-carboxylic acid (Compound A), formulated as an SC (suspension concentrate), and a second cereal herbicide alone and in combination.
(§3) Measured aliquot of benzyl ester of 4-amino-3-chloro-5-fluoro-6-(4-chloro-2-fluoro-3-methoxy-phenyl)pyridine-2-carboxylic acid (Compound A) was placed in 25 milliliter (mL) glass vials and diluted in a volume of 1.25% (v/v) Agri-dex crop oil concentrated to obtain stock solutions. Compound requirements are based upon a 12 mL application volume at a rate of 187 liters per hectare (L/ha). Spray solutions of the second cereal herbicide and experimental compound mixtures were prepared by adding the stock solutions to the appropriate amount of dilution solution to form 12 mL spray solution with active ingredients in two- and three-way combinations. Formulated compounds were applied to the plant material with an overhead Mandel track sprayer equipped with an 8002E nozzle calibrated to deliver 187 L/ha over an application area of 0.503 square meters (m^2) at a spray height of 18 inches (46 cm) above average plant canopy. Control plants were sprayed in the same manner with the solvent blank.
(§4) The treated plants and control plants were placed in a greenhouse as described above and watered by sub-irrigation to prevent wash-off of the test compounds. After 20-22 days, the condition of the test plants as compared with that of the control plants was determined visually and scored on a scale of 0 to 100 percent where 0 corresponds to no injury and 100 corresponds to complete kill.
(§5) Colby's equation was used to determine the herbicidal effects expected from the mixtures (Colby, S. R. 1967. Calculation of the synergistic and antagonistic response of herbicide combinations. Weeds 15:20-22.).
(§6) The following equation was used to calculate the expected activity of mixtures containing two active ingredients, A and B: Expected=A+B−(A×B/100)

Test [2] relates to VIOTR (Viola tricolor, wild pansy). The description is as above. The test is classed as in vivo, Viola tricolor (L.). Particulars: 8.75 gai/ha alone. On the procedure:
as §1, §2, §3, §4, §5, §6

For test [3], the system named is ECHCG (Echinochloa crus-galli, barnyardgrass). In words: In-water applied weed control, transplanted paddy rice, greenhouse (Example II). The test is classed as in vivo, Echinochloa crus-galli (L.) Beauv. How it is done: (§7) Weed seeds or nutlets of the desired test plant species were planted in puddled soil (mud) prepared by mixing a shredded, non-sterilized mineral soil (50.5 percent silt, 25.5 percent clay, and 24 percent sand, with a pH of about 7.6 and an organic matter content of about 2.9 percent) and water at a 1:1 volumetric ratio. The prepared mud was dispensed in 365 mL aliquots into 16-ounce (oz.) non-perforated plastic pots with a surface area of 86.59 square centimeters (cm^2) leaving a headspace of 3 centimeters (cm) in each pot. Rice seeds were planted in Sun Gro MetroMix® 306 planting mixture, which typically has a pH of 6.0 to 6.8 and an organic matter content of about 30 percent, in plastic plug trays. Seedlings at the second or third leaf stage of growth were transplanted into 860 mL of mud contained in 32-oz. non-perforated plastic pots with a surface area of 86.59 cm^2 4 days prior to herbicide application. The paddy was created by filling the headspace of the pots with 2.5 to 3 cm of water. When required to ensure good germination and healthy plants, a fungicide treatment and/or other chemical or physical treatment was applied. The plants were grown for 4-22 days in a greenhouse with an approximate 14 h photoperiod which was maintained at about 29′C during the day and 26° C. during the night. Nutrients were added as Osmocote® (19:6:12, N:P:K+minor nutrients) at 2 g per 16-oz. pot and 4 g per 32-oz. pot. Water was added on a regular basis to maintain the paddy flood, and supplemental lighting was provided with overhead metal halide 1000-Watt lamps as necessary. The plants were employed for testing when they reached the first through fourth true leaf stage.
(§8) Treatments consisted of the acid or esters of 4-amino-3-chloro-5-fluoro-6-(4-chloro-2-fluoro-3-methoxy-phenyl)pyridine-2-carboxylic acid (compound A) each formulated as an SC and various herbicidal components alone and in combination. Forms of compound A were applied on an acid equivalent basis.
(§9) Other herbicidal components were applied on an active ingredient basis and included acetolactate synthase (ALS)-inhibiting herbicides (sulfonylurea chemical class), azimsulfuron formulated as Gulliver®, bensulfuron-methyl formulated as Londax® 60DF, cyclosulfamuron (technical grade materail), ethoxysulfuron formulated as Sunrice® 15 WDG, flucetosulfuron formulated as Sukedachi® 1KG G, imazosulfuron formulated as Brazzos®, metsulfuron-methyl formulated as Lorate®, nicosulfuron formulated as Accent®, orthosulfamuron formulated as Strada® WG, propyrisulfuron formulated as Zeta One®, and rimsulfuron formulated as Matrix® WG.
(§10) Treatment requirements for each compound or herbicidal component were calculated based upon the rates being tested, the concentration of active ingredient or acid equivalent in the formulation, an application volume of 2 mL per component per pot, and an application area of 86.59 cm^2 per pot.
(§11) For formulated compounds, a measured amount was placed in an individual 100 or 200 mL glass vial and was dissolved in a volume of 1.25% (v/v) Agri-Dex® crop oil concentrate to obtain application solutions.
For technical grade compounds, a weighed amount was placed in an individual 100 to 200 mL glass vial and was dissolved in a volume of acetone to obtain concentrated stock solutions. […]

Test [4] relates to FIMMI (Fimbristylis miliacea, globe fringerush). The test is described as above. The format is in vivo, Fimbristylis miliacea (L.) Vahl. How it is done: as §7, §8, §9, §10, §11
For technical grade compounds, a weighed amount was placed in an individual 100 to 200 mL glass vial and was dissolved in a volume of acetone to obtain concentrated stock solutions. […] The concentrated stock solutions obtained were diluted with an equivalent volume of an aqueous mixture containing 2.5% (v/v) crop oil concentrate so that the final application solutions contained 1.25% (v/v) crop oil concentrate.
Applications were made by injecting with a pipetter appropriate amounts of the application solutions, individually and sequentially, into the aqueous layer of the paddy. Control plants were treated in the same manner with the solvent blank. Applications were made so that all treated plant material received the same concentrations of acetone and crop oil concentrate. […]

Test [5] concerns VERPE (Veronica persica, bird's-eye speedwell). In words: Post-emergence foliar-applied weed control in cereal crops, greenhouse (Example III). The format is in vivo, Veronica persica Poir. The method, boiled down:
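Greenhouse plants at the second or third true leaf stage (14 hour photoperiod, about 18/17 °C) were track-sprayed at 187 L/ha with Compound A SC, a second cereal herbicide, or their combinations, using 1.25% v/v crop oil concentrate. Injury was scored visually at 20-22 days against solvent-blank controls on a 0–100% scale. Expected mixture effects were calculated with Colby's equation.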

[6] abbreviates: Table 51, after 20-22 days, 8.75 gai/ha alone.
[7] abbreviates: Table 57, after 20-22 days, 8.75 gai/ha Compound A Benzyl Ester alone.

With `COc1c(Cl)ccc(-c2nc(C(=O)OCc3ccccc3)c(Cl)c(N)c2F)c1F` [Compound A Benzyl Ester], the “Weed Control LAMPU Obs” value in test [1] (setting [6]) and in test [1] (setting [7]) was 83% throughout. Further, the “Weed Control VIOTR Obs” value in test [2] (Table 52, after 20-22 days) stood at 50%; in test [2] (Table 54, after 20-22 days), 50%. Besides, the “Visual Weed Control (%) - 20 DAA ECHCG Obs” value in test [3] (Table 50, 4.38 gae/ha alone) was determined as 15%; in test [3] (Table 50, 8.75 gae/ha alone), 20%; in test [3] (Table 50, 17.5 gae/ha alone), 40%. Besides, the “Visual Weed Control (%) - 21 DAA FIMMI Obs” value in test [4] (Table 48, 8 gae/ha alone) is reported as 15%; in test [4] (Table 48, 16 gae/ha alone), 65%; in test [4] (Table 48, 32 gae/ha alone), 75%. The “Weed Control VERPE Obs” value in test [5] (setting [6]) was 50%; in test [5] (Table 53, after 20-22 days, 8.75 gai/ha alone), 50%; in test [5] (Table 55, after 20-22 days, 8.75 gai/ha alone) it was 50%; in test [5] (setting [7]), 50%.

Source of the values: US8871681B2, “Herbicidal compositions comprising 4-amino-3-chloro-5-fluoro-6-(4-chloro-2-fluoro-3-methoxyphenyl) pyridine-2-carboxylic acid or a derivative thereof and certain sulfonylureas” (Dow AgroSciences LLC, priority 2012, dated 2014).
